Laboratory results taken from patent US20090181920A1, “INTRATHECAL TREATMENT OF NEUROPATHIC PAIN WITH A2AR AGONISTS” (PGXHEALTH, LLC, priority 2008, published 2009).

Columns and labels:
CCI-induced allodynia [1] = assay: Chronic constriction injury (CCI) neuropathic pain model, von Frey testing after a single intrathecal injection; format: in vivo, Sprague Dawley rats; conditions: for Effect on CCI-induced allodynia relative to ATL313 and CGS21680: tested at 1 uM
Method: (§1) Saline is used as the vehicle in the experiments. All A2A agonists are dissolved in 100% DMSO to a 10 mM concentration. These are then diluted 1:10,000 with saline. The total volume of injection for all groups is 5 μL, which consists of a 1 μL air bubble, 1 μL of agonist/vehicle, 1 μL air bubble, and finally a 2 μL flush of saline. The intermediate air bubble is used to separate drug/vehicle and the flush.
Sprague Dawley rats underwent chronic constriction injury (CCI) of the sciatic nerve or sham surgery. After pre-surgery baseline testing (Day 0=D0), rats received chronic constriction injury of the left sciatic nerve at mid-thigh level to produce neuropathic pain (chronic constriction injury model: CCI). This is seen by the fall in pain threshold between days 4 and 11 (D4, D11) after surgery relative to D0. Once CCI-induced allodynia was stable as tested by von Frey filaments, the material to be studied (e.g., vehicle or A2AR agonists CGS21680 or ATL313) was injected intrathecally. After injection, behavioral testing occurred at 4, 24, and 72 h and then weekly for 6 weeks.
The results of the studies are shown in FIG. 1 with the translation of Y-axis units as follows: 5=10 grams, 4.75=5.62 grams, 4.5=3.16 grams, 4.25=[…], 4=1 gram, 3.75=0.56 grams, 3.5=0.32 grams.
Although the CCI surgery is unilateral (left sciatic nerve), the allodynia is present bilaterally. In addition, the reversal of allodynia by A2A agonism also occurs bilaterally. Therefore, ATL313 activates A2A receptors within the spinal cord altering the mechanisms leading to central sensitization.
The animals following unilateral CCI surgery of the left sciatic nerve, as noted above, have allodynia in both hind paws. For simplicity all graphs show left hind paw responses only, as the right hind paw had equivalent responses.

CCI-induced allodynia [2] = assay: Blockade and reversal of A2A agonist (ATL313) by antagonist ZM241385 in the CCI model, von Frey testing; format: in vivo, male Sprague-Dawley rats
Method: as §1
CCI surgery and indwelling intrathecal catheters were implanted in male Sprague-Dawley rats (325-350 g, n=6/group). 10-14 days after surgery, when the allodynia is stable, an A2A antagonist (ZM241385, 10 uM, Tocris Bioscience) or vehicle was co-administered with ATL313 or vehicle. von Frey testing was done before surgery, before intrathecal injections, and 1, 2, 3, 4, 6, and 24 h after injection.
In a separate group of animals, ATL313 (1 uM) was administered 10-14 days after CCI surgery. One week after ATL313 (1 uM, i.t.) administration, ZM241385 (10 uM) or equivolume vehicle was administered intrathecally. von Frey testing was done 1, 2, 3, 4, 6 & 24 h after injection.

[3] = single intrathecal injection, 1 uM, given 10-14 days after CCI surgery, P<0.05

In the case of `COC(=O)N1CCC(CC#Cc2nc(N)c3ncn(C4OC(C(=O)NC5CC5)C(O)C4O)c3n2)CC1` (centres unmarked) [ATL313, 4-{3-[6-amino-9-(5-cyclopropylcarbamoyl-3,4-dihydroxy-tetrahydro-furan-2-yl)-9H-purin-2-yl]-prop-2-ynyl}-piperidine-1-carboxylic acid methyl ester], the “Effect on CCI-induced allodynia” value (CCI-induced allodynia [1]; 0.1 uM in 5 uL intrathecal, compared to saline-injected animals, P>0.05) is reported as “no significant impact on CCI-induced allodynia”, the “Analgesic effect in sham-operated animals” value (CCI-induced allodynia [1]; sham-operated animals, intrathecal, P>0.05) is reported as “no effect on sham-operated animals” and the “Duration of reversal of allodynia” value (CCI-induced allodynia [1]; [3]) is reported as “at least 4 weeks”. For the same compound, the “Effect on CCI-induced allodynia (mechanical sensitivity to von Frey filaments)” value (CCI-induced allodynia [1]; [3]) was “partial reversal of the allodynia”.

In the case of `CCNC(=O)[C@H]1O[C@@H](n2cnc3c(N)nc(NCCc4ccc(CCC(=O)O)cc4)nc32)[C@H](O)[C@@H]1O` [CGS21680, 3-[4-[2-[[6-amino-9-[(2R,3R,4S,5S)-5-(ethylcarbamoyl)-3,4-dihydroxy-oxolan-2-yl]purin-2-yl]amino]ethyl]phenyl]propanoic acid, reference compound], the “Reversal of CCI-induced allodynia compared with ATL313” value (CCI-induced allodynia [1]; intrathecal, at a 10-fold higher dose than that of ATL313, P<0.001) is reported as “comparable reversal of CCI-induced allodynia, in both duration and intensity”.

With `COc1ccccc1OC(=O)N1CCC(CC#Cc2nc(N)c3ncn(C4OC(C(=O)NC5CC5)C(O)C4O)c3n2)CC1` (centres unmarked) [Compound A, 4-{3-[6-Amino-9-(5-cyclopropylcarbamoyl-3,4-dihydroxy-tetrahydro-furan-2-yl)-9H-purin-2-yl]-prop-2-ynyl}-piperidine-1-carboxylic acid 2-methoxyphenyl ester] the “Effect on CCI-induced allodynia relative to ATL313 and CGS21680” value (CCI-induced allodynia [1]; intrathecal) was “ranged between ATL313 (1 μM) and CGS21680 (1 μM)”.

For `Nc1nc(C#CCC2CCN(C(=O)OC3CCC3)CC2)nc2c1ncn2C1OC(C(=O)NC2CC2)C(O)C1O` (centres unmarked) [Compound B, 4-{3-[6-Amino-9-(5-cyclopropylcarbamoyl-3,4-dihydroxy-tetrahydro-furan-2-yl)-9H-purin-2-yl]-prop-2-ynyl}-piperidine-1-carboxylic acid cyclobutyl ester], the “Effect on CCI-induced allodynia relative to ATL313 and CGS21680” value (CCI-induced allodynia [1]; intrathecal) was “ranged between ATL313 (1 μM) and CGS21680 (1 μM)”.

`Nc1nc(C#CCC2CCN(C(=O)OCC3CC3)CC2)nc2c1ncn2C1OC(C(=O)NC2CC2)C(O)C1O` (centres unmarked) [Compound C, 4-{3-[6-Amino-9-(5-cyclopropylcarbamoyl-3,4-dihydroxy-tetrahydro-furan-2-yl)-9H-purin-2-yl]-prop-2-ynyl}-piperidine-1-carboxylic acid cyclopropylmethyl ester] was tested, and the “Effect on CCI-induced allodynia relative to ATL313 and CGS21680” value (CCI-induced allodynia [1]; intrathecal) was “ranged between ATL313 (1 μM) and CGS21680 (1 μM)”.

In the case of `Nc1nc(NCCc2ccc(O)cc2)nc2nc(-c3ccco3)nn12` [ZM241385], the “Effect of co-administered antagonist on the ATL313 effect on CCI-induced allodynia” value (CCI-induced allodynia [2]; ZM241385 10 uM co-administered intrathecally with ATL313 1 uM, 10-14 days after CCI surgery, P<0.0001) is reported as “abolishes the effect of ATL313 on the CCI-induced allodynia”, the “Effect of antagonist on the established reversal of allodynia” value (CCI-induced allodynia [2]; ZM241385 10 uM intrathecal, one week after ATL313 1 uM i.t.) is reported as “had no effect on reversal of the allodynia induced by the previous ATL313 administration” and the “Effect of antagonist alone on CCI-induced allodynia” value (CCI-induced allodynia [2]; ZM241385 10 uM intrathecal, without agonist, P>0.05) is reported as “has no effect on the CCI-induced allodynia”.
